{"source": "patent US20240207458A1", "about": "“TARGETED ALPHA PARTICLE THERAPY FOR SOMATOSTATIN RECEPTOR 2 POSITIVE NEUROENDOCRINE TUMORS AND METASTASES” (H. LEE MOFFITT CANCER CENTER AND RESEARCH INSTITUTE, INC., priority 2021, published 2024)", "key": {"[1]": {"target": "T1, SSTR2 receptor (Homo sapiens, UniProt P30874)", "T1 construct": "expressed in transfected cells; host or cells: Hek293/SSTR2 cells", "T1 sequence (P30874 whole entry)": "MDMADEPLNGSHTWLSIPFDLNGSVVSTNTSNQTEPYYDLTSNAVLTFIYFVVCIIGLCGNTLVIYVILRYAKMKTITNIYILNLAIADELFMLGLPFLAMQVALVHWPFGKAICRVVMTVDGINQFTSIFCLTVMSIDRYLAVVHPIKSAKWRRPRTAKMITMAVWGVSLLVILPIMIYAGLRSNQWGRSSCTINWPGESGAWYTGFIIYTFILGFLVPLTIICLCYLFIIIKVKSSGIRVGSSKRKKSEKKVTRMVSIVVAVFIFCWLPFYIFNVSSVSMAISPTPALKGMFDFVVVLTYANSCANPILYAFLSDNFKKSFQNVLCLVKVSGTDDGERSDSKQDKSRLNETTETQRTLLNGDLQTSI", "experiment": "whole-cell competition binding assay with Eu-DOTATATE as competing ligand (Hek293/SSTR2 cells)", "conditions": "FIGS. 5 and 6", "procedure": "Competition curves were analyzed with GraphPad Prism software using the sigmoidal dose-response (variable slope) classical equation for nonlinear regression analysis."}, "[2]": {"conditions": "225Ac chelate, non-tumor bearing BALB/c mice", "description": "BD of ^225Ac-DOTA-linker-TATE derivatives in non-tumor bearing BALB/c mice: The biodistribution studies for all 5 compounds were conducted (FIG. 4 and Table 1)."}, "[3]": {"experiment": "in vitro", "type": "in vitro ADME", "conditions": "human, plasma", "procedure": "The compound was >95% intact after 5 days incubation."}, "[4]": {"conditions": "mouse, in vivo", "procedure": "(§1) Non-tumor bearing BALB/c mice were tested for toxicity and BD. […] RD was calculated using the BD data.\n(§2) RD calculations determined pharmacokinetics parameters and absorbed α-emission dosages from ^225Ac and its daughters."}, "[5]": {"set-up": "species or system BALB/c mice", "conditions": "mouse, in vivo", "procedure": "as §1, §2"}, "[6]": {"experiment": "Log D7.4, miniaturized shake flask assay (n-octanol/PBS pH 7.4)", "type": "physicochemical", "conditions": "for Log D7.4 of La^3+ chelate: La3+ chelate, n-octanol/PBS; for LogD7.4: metal chelate as named (Eu or La)", "procedure": "Log D7.4 measurements of the La^3+-labeled derivatives: The octanol-water partition coefficients at pH7.4 (LogD7.4) of DOTA-linker-TATE derivatives were determined using the miniaturized shake flask assay (Table 1). Briefly, 1:1 n-octanol (HPLC grade) was added to the solution of the test compound in PBS buffer (NaH2PO4/Na2HPO4 buffer, pH 7.4). The mixture was well mixed and then two layers were separated by centrifuge. The concentrations of compound in each layer were determined by HPLC."}}, "note": "Bridge positions count the residues as written; N and C are the ends. Square brackets hold non-standard residues; d marks the D form. Peptide text beside a SMILES is read from it. * marks the point of attachment. DOTA = O=C(O)CN1CCN(CC(=O)O)CCN(CC(=O)*)CCN(CC(=O)O)CC1"}
{"compound": "CC(C)C[C@@H](NC(=O)[C@@H](Cc1ccccc1)NC(=O)CN1CCN2CCN3CCN(CC1)CC(=O)[O][139La]([O]C(=O)C2)[O]C(=O)C3)C(=O)N[C@H](Cc1ccccc1)C(=O)N[C@H]1CSSC[C@@H](C(=O)N[C@H](C(=O)O)[C@@H](C)O)NC(=O)[C@H]([C@@H](C)O)NC(=O)[C@H](CCCCN)NC(=O)[C@@H](Cc2c[nH]c3ccccc23)NC(=O)[C@H](Cc2ccc(O)cc2)NC1=O", "note": "[Compound 15, 139La-DOTA-D-Phe-D-Leu-TATE]", "values": [{"measurement": "binding affinity for the SSTR2 receptor", "setting": "[1]", "value": "high binding affinity (low nM Ki)"}]}
{"compound": "C[C@@H](O)[C@H](NC(=O)[C@@H]1CSSC[C@H](NC(=O)[C@@H](Cc2ccccc2)NC(=O)[C@@H](CCCCN)NC(=O)[C@@H](CCCCN)NC(=O)CN2CCN(CC(=O)O)CCN(CC(=O)O)CCN(CC(=O)O)CC2)C(=O)N[C@@H](Cc2ccc(O)cc2)C(=O)N[C@H](Cc2c[nH]c3ccccc23)C(=O)N[C@@H](CCCCN)C(=O)N[C@@H]([C@@H](C)O)C(=O)N1)C(=O)O", "note": "[Compound 4, DOTA-di-D-Lys-TATE]", "values": [{"measurement": "Kidney/Liver uptake ratio (24 h)", "setting": "[2]", "value": 89.6}]}
{"compound": "C[C@@H](O)[C@H](NC(=O)[C@@H]1CSSC[C@H](NC(=O)[C@@H](Cc2ccccc2)NC(=O)CN2CCN(CC(=O)O)CCN(CC(=O)O)CCN(CC(=O)O)CC2)C(=O)N[C@@H](Cc2ccc(O)cc2)C(=O)N[C@H](Cc2c[nH]c3ccccc23)C(=O)N[C@@H](CCCCN)C(=O)N[C@@H]([C@@H](C)O)C(=O)N1)C(=O)O", "note": "[^225Ac-DOTATATE, metal not drawn]", "values": [{"measurement": "remaining at 120 h", "setting": "[3]", "value": "96.7 ± 2.06", "unit": "%"}, {"measurement": "% Intact TLC scanner", "setting": "[3]; 24 h", "value": "100.44 ± 0.88", "unit": "%"}, {"measurement": "% Intact TLC scanner", "setting": "[3]; 72 h", "value": "99.27 ± 0.29", "unit": "%"}, {"measurement": "% Intact TLC scanner", "setting": "[3]; 168 h", "value": "93.19 ± 1.50", "unit": "%"}, {"measurement": "% Intact TLC scanner", "setting": "[3]; 240 h", "value": "90.29 ± 4.00", "unit": "%"}, {"measurement": "appearance / indications of toxicity", "setting": "[4]", "value": "no indications of toxicity"}, {"measurement": "primary route of elimination", "setting": "[5]", "value": "renal route"}]}
{"compound": "C[C@@H](O)[C@H](NC(=O)[C@@H]1CSSC[C@H](NC(=O)[C@@H](Cc2ccccc2)NC(=O)CCCCCNC(=O)CN2CCN(CC(=O)O)CCN(CC(=O)O)CCN(CC(=O)O)CC2)C(=O)N[C@@H](Cc2ccc(O)cc2)C(=O)N[C@H](Cc2c[nH]c3ccccc23)C(=O)N[C@@H](CCCCN)C(=O)N[C@@H]([C@@H](C)O)C(=O)N1)C(=O)O", "note": "[Compound 2, DOTA-Ahx-TATE]", "values": [{"measurement": "Kidney/Liver uptake ratio (24 h)", "setting": "[2]", "value": 5.3}]}
{"compound": "C[C@@H](O)[C@H](NC(=O)[C@@H]1CSSC[C@H](NC(=O)[C@@H](Cc2ccccc2)NC(=O)CN2CCN(CC(=O)O)CCN(CC(=O)O)CCN(CC(=O)O)CC2)C(=O)N[C@@H](Cc2ccc(O)cc2)C(=O)N[C@H](Cc2c[nH]c3ccccc23)C(=O)N[C@@H](CCCCN)C(=O)N[C@@H]([C@@H](C)O)C(=O)N1)C(=O)O", "note": "[Compound 1, DOTA-TATE, reference compound]", "values": [{"measurement": "Kidney/Liver uptake ratio (24 h)", "setting": "[2]", "value": 3.6}]}
{"compound": "C[C@@H](NC(=O)[C@@H](Cc1ccccc1)NC(=O)CN1CCN2CCN3CCN(CC1)CC(=O)[O][139La]([O]C(=O)C2)[O]C(=O)C3)C(=O)N[C@H](Cc1ccccc1)C(=O)N[C@H]1CSSC[C@@H](C(=O)N[C@H](C(=O)O)[C@@H](C)O)NC(=O)[C@H]([C@@H](C)O)NC(=O)[C@H](CCCCN)NC(=O)[C@@H](Cc2c[nH]c3ccccc23)NC(=O)[C@H](Cc2ccc(O)cc2)NC1=O", "note": "[Compound 14, 139La-DOTA-D-Phe-D-Ala-TATE]", "values": [{"measurement": "binding affinity for the SSTR2 receptor", "setting": "[1]", "value": "high binding affinity (low nM Ki)"}]}
{"compound": "C[C@@H](O)[C@H](NC(=O)[C@@H]1CSSC[C@H](NC(=O)[C@@H](Cc2ccccc2)NC(=O)[C@@H](CCCCN)NC(=O)[C@@H](CCCCN)NC(=O)CN2CCN(CC(=O)O)CCN(CC(=O)O)CCN(CC(=O)O)CC2)C(=O)N[C@@H](Cc2ccc(O)cc2)C(=O)N[C@H](Cc2c[nH]c3ccccc23)C(=O)N[C@@H](CCCCN)C(=O)N[C@@H]([C@@H](C)O)C(=O)N1)C(=O)O", "note": "[Compound 10, La-DOTA-D-Lys-D-Lys-TATE]", "values": [{"measurement": "Log D7.4 of La^3+ chelate", "setting": "[6]", "value": "−3.28"}, {"measurement": "LogD7.4", "setting": "[6]", "value": "−3.28"}]}
{"compound": "DOTA-D-Lys-D-Glu-TATE [Compound 5]", "values": [{"measurement": "Kidney/Liver uptake ratio (24 h)", "setting": "[2]", "value": 87.6}]}
{"compound": "C[C@@H](O)[C@H](NC(=O)[C@@H]1CSSC[C@H](NC(=O)[C@@H](Cc2ccccc2)NC(=O)[C@@H](CCC(=O)O)NC(=O)[C@@H](CCC(=O)O)NC(=O)CN2CCN(CC(=O)O)CCN(CC(=O)O)CCN(CC(=O)O)CC2)C(=O)N[C@@H](Cc2ccc(O)cc2)C(=O)N[C@H](Cc2c[nH]c3ccccc23)C(=O)N[C@@H](CCCCN)C(=O)N[C@@H]([C@@H](C)O)C(=O)N1)C(=O)O", "note": "[Compound 3, DOTA-di-D-Glu-TATE]", "values": [{"measurement": "Kidney/Liver uptake ratio (24 h)", "setting": "[2]", "value": 16.5}]}
{"compound": "Eu-DOTA-TATE [Compound 6, reference compound]", "values": [{"measurement": "LogD7.4", "setting": "[6]", "value": "−2.80"}]}
{"compound": "C[C@@H](O)[C@H](NC(=O)[C@@H]1CSSC[C@H](NC(=O)[C@@H](Cc2ccccc2)NC(=O)[C@@H](CCC(=O)O)NC(=O)[C@@H](CCCCN)NC(=O)CN2CCN(CC(=O)O)CCN(CC(=O)O)CCN(CC(=O)O)CC2)C(=O)N[C@@H](Cc2ccc(O)cc2)C(=O)N[C@H](Cc2c[nH]c3ccccc23)C(=O)N[C@@H](CCCCN)C(=O)N[C@@H]([C@@H](C)O)C(=O)N1)C(=O)O", "note": "[Compound 11, La-DOTA-D-Lys-D-Glu-TATE] ({DOTA}-[dK][dE][dF]CY[dW]KTCT-OH; disulfide 4-9)", "values": [{"measurement": "Log D7.4 of La^3+ chelate", "setting": "[6]", "value": "−3.10"}, {"measurement": "LogD7.4", "setting": "[6]", "value": "−3.10"}]}
